Key:
Type in all cases: in vivo
Echinochloa crusgalli = assay: Seedling stage sealing experiment for water-seeding; details: 120 g a.i./ha, 15 days, fresh weight control rate
Text: (§1) The activity level criteria for plant damage (i.e., growth control rate) are as follows: • Level 9: completely dead; • Level 8: growth control rate greater than or equal to 90% and less than 100%; • Level 7: growth control rate greater than or equal to 80% and less than 90%; • Level 6: growth control rate greater than or equal to 70% and less than 80%; • Level 5: growth control rate greater than or equal to 50% and less than 70%; • Level 4: growth control rate greater than or equal to 30% and less than 50%; • Level 3: growth control rate greater than or equal to 20% and less than 30%; • Level 2: growth control rate greater than or equal to 10% and less than 20%; • Level 1: growth control rate less than 10%; • Level 0: no effect.
(§2) The above growth control rates are fresh weight control rates.
(§3) Echinochloa phyllopogon, Digitaria sanguinalis, Huaidao (rice cultivar), etc. were broadcasted on the surface of nutrition bowls filled with soil and fully covered by soil. The foregoing well-prepared nutrition bowls were then placed in a cultivation box with water filled to a suitable height to keep the soil in the nutrition bowls moist. A test compound of the present invention was individually dissolved with acetone, then diluted into solution of a certain concentration using a certain amount of water, and sprayed using a spray tower. The plants were placed on a greenhouse seedbed and cultured for 15 days, and the experimental results were then collected. The compound was applied at 120, 60, 30 and 15 g a.i./ha in triplicate, and the results were averaged.

Echinochloa phyllopogon = assay: as above; details: 120 g a.i./ha, seedling stage sealing, 15 days, fresh weight control rate
Text: as §1, §2, §3

Huaidao (rice cultivar) = assay: Seedling stage sealing experiment for water-seeding (crop safety); details: 120 g a.i./ha, 15 days, fresh weight control rate; for Huaidao (rice cultivar) plant damage level: seedling stage sealing; for Huaidao (rice cultivar) plant damage level (growth control rate): spray, seedling stage sealing for water-seeding
Text: as §1, §2, §3

[1] = spray, seedling stage sealing for water-seeding

| Compound | Echinochloa crusgalli activity level (growth control rate) (Echinochloa crusgalli; seedling stage sealing) | Echinochloa phyllopogon activity level (growth control rate) (Echinochloa phyllopogon) | Huaidao (rice cultivar) plant damage level (Huaidao (rice cultivar)) | Echinochloa crusgalli activity level (growth control rate) (Echinochloa crusgalli; [1]) | Huaidao (rice cultivar) plant damage level (growth control rate) (Huaidao (rice cultivar)) |
| --- | --- | --- | --- | --- | --- |
| CN1C[C@H](c2cc(F)cc(C(F)(F)F)c2)[C@@H](C(=O)Nc2cnn(C)c2Cl)C1=O [67′] | 9 | 8 (Level 8: growth control rate greater than or equal to 90% and less than 100%) | 1 (Level 1: growth control rate less than 10%) | – | – |
| Cc1cc([C@H]2CN(C)C(=O)[C@@H]2C(=O)Nc2cnn(C)c2Cl)cc(C(F)(F)F)c1 [69′] | 9 | 9 | 1 (Level 1: growth control rate less than 10%) | – | – |
| CC(C)n1ncc(NC(=O)[C@H]2C(=O)N(C)C[C@@H]2c2cccc(C(F)(F)F)c2)c1Cl [97′] | 9 | 9 | 0 | – | – |
| CN1C[C@H](c2cccc(C(F)(F)F)c2)[C@@H](C(=O)Nc2cnn(C)c2F)C1=O [119′] | 9 | 9 | 0 | – | – |
| COCn1ncc(NC(=O)[C@H]2C(=O)N(C)C[C@@H]2c2cccc(C)c2)c1Cl [127′] | 9 | 8 (Level 8: growth control rate greater than or equal to 90% and less than 100%) | 0 | – | – |
| C#CCn1ncc(NC(=O)[C@H]2C(=O)N(C)C[C@@H]2c2cccc(C)c2)c1Cl [132′] | 7 (Level 7: growth control rate greater than or equal to 80% and less than 90%) | 7 (Level 7: growth control rate greater than or equal to 80% and less than 90%) | 0 | – | – |
| Cc1cccc([C@H]2CN(C)C(=O)[C@@H]2C(=O)Nc2cnn(C)c2C)c1 [134′] | 7 (Level 7: growth control rate greater than or equal to 80% and less than 90%) | 7 (Level 7: growth control rate greater than or equal to 80% and less than 90%) | 0 | – | – |
| Cc1cccc([C@H]2CN(C)C(=O)[C@@H]2C(=O)Nc2cnn(C)c2C(F)(F)F)c1 [136′] | 9 | 9 | 0 | – | – |
| C=Cc1c(NC(=O)[C@H]2C(=O)N(C)C[C@@H]2c2cccc(C)c2)cnn1C [137′] | 6 (Level 6: growth control rate greater than or equal to 70% and less than 80%) | 5 (Level 5: growth control rate greater than or equal to 50% and less than 70%) | 0 | – | – |
| Cc1cccc([C@H]2CN(C)C(=O)[C@@H]2C(=O)Nc2cnn(C(C)C)c2C2CC2)c1 [138′] | 7 (Level 7: growth control rate greater than or equal to 80% and less than 90%) | 6 (Level 6: growth control rate greater than or equal to 70% and less than 80%) | 0 | – | – |
| CN1C[C@H](c2cccc(C3CC3)c2)[C@@H](C(=O)Nc2cnn(C)c2Cl)C1=O [151′] | – | 9 | 0 | – | – |
| CN1C[C@H](c2cccc(C(F)(F)F)c2)[C@@H](C(=O)Nc2cnn(C)c2)C1=O [156′] | 9 | 7 (Level 7: growth control rate greater than or equal to 80% and less than 90%) | 0 | – | – |
| C#CCn1ncc(NC(=O)[C@H]2C(=O)N(C)C[C@@H]2c2cccc(C(F)(F)F)c2)c1Cl [163′] | 9 | 8 (Level 8: growth control rate greater than or equal to 90% and less than 100%) | 0 | – | – |
| CN1C[C@H](c2cccc(C(F)(F)F)c2)[C@@H](C(=O)Nc2cnn(C)c2C#N)C1=O [187′] | 9 | 9 | 0 | – | – |
| Cc1c(NC(=O)[C@H]2C(=O)N(C)C[C@@H]2c2cccc(C(F)(F)F)c2)cnn1C [189′] | 9 | 9 | 0 | – | – |
| COC(=O)c1c(NC(=O)[C@H]2C(=O)N(C)C[C@@H]2c2cccc(C(F)(F)F)c2)cnn1C [199′] | 6 (Level 6: growth control rate greater than or equal to 70% and less than 80%) | 6 (Level 6: growth control rate greater than or equal to 70% and less than 80%) | 0 | – | – |
| Cc1nn(C(F)F)c(Cl)c1NC(=O)[C@H]1C(=O)N(C)C[C@@H]1c1cccc(C(F)(F)F)c1 [209′] | 7 (Level 7: growth control rate greater than or equal to 80% and less than 90%) | 6 (Level 6: growth control rate greater than or equal to 70% and less than 80%) | 0 | – | – |

| Compound | Echinochloa crusgalli activity level (growth control rate) (Echinochloa crusgalli; seedling stage sealing) | Echinochloa phyllopogon activity level (growth control rate) (Echinochloa phyllopogon) | Huaidao (rice cultivar) plant damage level (Huaidao (rice cultivar)) | Echinochloa crusgalli activity level (growth control rate) (Echinochloa crusgalli; [1]) | Huaidao (rice cultivar) plant damage level (growth control rate) (Huaidao (rice cultivar)) |
| --- | --- | --- | --- | --- | --- |
| COc1cccc([C@H]2CN(C)C(=O)[C@@H]2C(=O)Nc2cnn(C(F)F)c2Cl)c1 [215′] | 9 | 8 (Level 8: growth control rate greater than or equal to 90% and less than 100%) | 0 | – | – |
| CCc1ccc([C@H]2CN(C)C(=O)[C@@H]2C(=O)Nc2cnn(C)c2Cl)cc1 [244′] | 9 | 7 (Level 7: growth control rate greater than or equal to 80% and less than 90%) | 0 | – | – |
| CCc1cc(C)cc([C@H]2CN(C)C(=O)[C@@H]2C(=O)Nc2cnn(C)c2Cl)c1 [287′] | – | 9 | 0 | – | – |
| Cc1cc(C2CC2)cc([C@H]2CN(C)C(=O)[C@@H]2C(=O)Nc2cnn(C)c2Cl)c1 [289′] | – | 9 | 0 | – | – |
| Cc1cc(C)cc([C@H]2CN(C)C(=O)[C@@H]2C(=O)N(CC2CC2)c2cnn(C)c2Cl)c1 [367′] | 9 | – | 1 (Level 1: growth control rate less than 10%) | – | – |
| Cc1cccc([C@H]2CN(C)C(=O)[C@@H]2C(=O)Nc2cnn(C(C)(C)C)c2Cl)c1 [384′] | 6 (Level 6: growth control rate greater than or equal to 70% and less than 80%) | – | 0 | – | – |
| Cc1cc(C)cc([C@H]2CN(C)C(=O)[C@@H]2C(=O)Nc2cnn(C)c2C(F)(F)C(F)(F)F)c1 [428′] | 6 (Level 6: growth control rate greater than or equal to 70% and less than 80%) | – | 0 | – | – |
| COc1cc([C@H]2CN(C)C(=O)[C@@H]2C(=O)Nc2cnn(C)c2Cl)cc(OC)c1OC [449′] | – | – | – | 6 (Level 6: growth control rate greater than or equal to 70% and less than 80%) | 0 |
| Cc1cccc([C@H]2CN(C)C(=O)[C@@H]2C(=O)Nc2cnn(C(=O)OC(C)(C)C)c2Cl)c1 [463′] | – | – | – | 6 (Level 6: growth control rate greater than or equal to 70% and less than 80%) | 0 |
| CN1C[C@H](c2cccc(C(F)(F)F)c2)[C@@H](C(=O)Nc2cnn(C)c2C(N)=O)C1=O [482′] | – | – | – | 9 | 0 |
| Cc1cc(C)cc([C@H]2CN(C)C(=O)[C@@H]2C(=O)N(C)c2cnn(C)c2Cl)c1 [490′] | – | – | – | 9 | 0 |
| CN1C[C@H](c2cc(Br)cc(C(F)F)c2)[C@@H](C(=O)Nc2cnn(C)c2C2CC2)C1=O [513′] | – | – | – | 9 | 0 |
| Cc1cccc([C@H]2CN(C)C(=O)[C@@H]2C(=O)Nc2cnn(C)c2[S+](C)[O-])c1 (some centres unmarked) [530′] | – | – | – | 9 | 0 |
| Cc1cc(C)cc([C@H]2CN(C)C(=O)[C@@H]2C(=O)Nc2cnn(C)c2-c2cscn2)c1 [551′] | – | – | – | 9 | 0 |
| CN1CC(c2csc3ccccc23)C(C(=O)Nc2cnn(C)c2Cl)C1=O (centres unmarked) [Compound 359] | – | 7 (Level 7: growth control rate greater than or equal to 80% and less than 90%) | 0 | – | – |
| CN1CC(c2cccc(C(F)(F)F)c2)C(C(=O)Nc2cnn(C)c2CF)C1=O (centres unmarked) [Compound 477] | – | – | – | 9 | 0 |
| Cc1cc(C)cc(C2CN(C)C(=O)C2C(=O)Nc2cnn(C)c2N(C)C)c1 (centres unmarked) [Compound 499] | – | – | – | 8 (Level 8: growth control rate greater than or equal to 90% and less than 100%) | 0 |

— patent publication US20260223850A1, “SUBSTITUTED PYRROLIDONE COMPOUND, PREPARATION METHOD THEREFOR, COMPOSITION AND APPLICATION THEREOF” (QINGDAO KINGAGROOT CHEMICAL COMPOUND CO., LTD., priority 2023, published 2026)
